Assay results: the supplement of paper PMC10307832

Tests used:
Experiment in all cases: relative viability (nuclei count vs DMSO), 5 days (fraction); higher = more cells survive
[1] = compound: C=CCNC1=C2C[C@@H](C)C[C@H](OC)[C@H](O)[C@@H](C)/C=C(\C)[C@H](OC(N)=O)[C@@H](OC)/C=C\C=C(/C)C(=O)NC(=CC1=O)C2=O [17-AAG] + O=C(c1cc(Cc2n[nH]c(=O)c3ccccc23)ccc1F)N1CCN(C(=O)C2CC2)CC1 [Olaparib] (partner 8 µM)
In short: (§1)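 Lung cancer cell lines were seeded in 1536-well plates and dosed by pin tool the next day, with either a single drug or a fixed anchor-drug dose combined with five library-drug doses (not always all listed) spaced in √10 steps. Five days later, one step fixed the cells and stained their nuclei (final 0.05% Triton X-100, 1% formaldehyde, 1 ug/ml Hoechst), and nuclei were counted on 4× images. Relative viability is the nuclei count in treated wells divided by the count in vehicle wells, and each value is the median of duplicate plates.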

[2] = compound: C=CCNC1=C2C[C@@H](C)C[C@H](OC)[C@H](O)[C@@H](C)/C=C(\C)[C@H](OC(N)=O)[C@@H](OC)/C=C\C=C(/C)C(=O)NC(=CC1=O)C2=O [17-AAG] + Cc1nc(NC(=O)N2CCC[C@H]2C(N)=O)sc1-c1ccnc(C(C)(C)C(F)(F)F)c1 [Alpelisib] (partner 2 µM)
In short: as §1

[3] = compound: C=CCNC1=C2C[C@@H](C)C[C@H](OC)[C@H](O)[C@@H](C)/C=C(\C)[C@H](OC(N)=O)[C@@H](OC)/C=C\C=C(/C)C(=O)NC(=CC1=O)C2=O [17-AAG] + Nc1nc2[nH]cc(CCc3ccc(C(=O)N[C@@H](CCC(=O)O)C(=O)O)cc3)c2c(=O)[nH]1 [Pemetrexed] (partner 0.2 µM)
In short: as §1

[4] = compound: C=CCNC1=C2C[C@@H](C)C[C@H](OC)[C@H](O)[C@@H](C)/C=C(\C)[C@H](OC(N)=O)[C@@H](OC)/C=C\C=C(/C)C(=O)NC(=CC1=O)C2=O [17-AAG] + CC(C)C[C@H](NC(=O)[C@H](Cc1ccccc1)NC(=O)c1cnccn1)B(O)O [Bortezomib] (partner 0.002 µM)
In short: as §1

Cell Line | relative viability ([1]; first compound 0.00128 µM) | relative viability ([1]; first compound 0.004048 µM) | relative viability ([1]; first compound 0.0128 µM) | relative viability ([1]; first compound 0.04048 µM) | relative viability ([1]; first compound 0.128 µM) | relative viability ([2]; first compound 0.00128 µM) | relative viability ([2]; first compound 0.004048 µM) | relative viability ([2]; first compound 0.0128 µM) | relative viability ([2]; first compound 0.04048 µM) | relative viability ([2]; first compound 0.128 µM) | relative viability ([3]; first compound 0.00128 µM) | relative viability ([3]; first compound 0.004048 µM) | relative viability ([3]; first compound 0.0128 µM) | relative viability ([3]; first compound 0.04048 µM) | relative viability ([3]; first compound 0.128 µM) | relative viability ([4]; first compound 0.00128 µM) | relative viability ([4]; first compound 0.004048 µM) | relative viability ([4]; first compound 0.0128 µM) | relative viability ([4]; first compound 0.04048 µM) | relative viability ([4]; first compound 0.128 µM)
NCI-H661 | 0.804 | 0.716 | 0.529 | 0.333 | 0.253 | 0.573 | 1 | 0.728 | 0.347 | 0.188 | 0.883 | 0.926 | 0.861 | 0.367 | 0.31 | 0.857 | 0.912 | 0.781 | 0.637 | 0.393
NCI-H838 | 0.768 | 0.591 | 0.139 | 0.128 | 0.133 | 0.872 | 0.96 | 0.803 | 0.176 | 0.158 | 0.258 | 0.313 | 0.208 | 0.133 | 0.154 | 0.962 | 0.653 | 0.124 | 0.136 | 0.0816
NCI-H1355 | 0.749 | 0.718 | 0.459 | 0.2 | 0.136 | 0.867 | 0.86 | 0.884 | 0.86 | 0.327 | 1 | 0.993 | 1.06 | 0.623 | 0.164 | 1.21 | 1.11 | 1.28 | 0.26 | 0.144
NCI-H1437 | 0.626 | 0.609 | 0.285 | 0.194 | 0.173 | 0.959 | 0.929 | 0.88 | 0.107 | 0.122 | 0.348 | 0.37 | 0.246 | 0.214 | 0.154 | 0.606 | 0.389 | 0.176 | 0.123 | 0.0811
NCI-H1651 | 0.173 | 0.19 | 0.21 | 0.153 | 0.159 | 0.972 | 0.895 | 0.902 | 0.27 | 0.157 | 0.635 | 0.605 | 0.585 | 0.536 | 0.173 | 0.859 | 0.928 | 0.872 | 0.89 | 0.425
NCI-H1666 | 0.756 | 0.721 | 0.712 | 0.526 | 0.556 | 0.949 | 0.713 | 0.299 | 0.216 | 0.214 | 0.921 | 0.877 | 0.908 | 0.515 | 0.517 | 0.78 | 0.687 | 0.244 | 0.228 | 0.171
NCI-H1734 | 0.558 | 0.686 | 0.59 | 0.255 | 0.119 | 0.708 | 0.759 | 0.716 | 0.289 | 0.16 | 0.4 | 0.474 | 0.475 | 0.261 | 0.161 | 0.917 | 0.897 | 0.734 | 0.269 | 0.145
NCI-H1755 | 0.873 | 0.849 | 0.903 | 0.712 | 0.238 | 0.957 | 0.945 | 0.891 | 0.652 | 0.254 | 0.47 | 0.404 | 0.407 | 0.355 | 0.214 | 0.966 | 0.9 | 0.817 | 0.391 | 0.189
NCI-H1792 | 0.456 | 0.284 | 0.221 | 0.0633 | 0.0524 | 0.713 | 0.64 | 0.594 | 0.441 | 0.306 | 0.782 | 0.378 | 0.113 | 0.0425 | 0.0604 | 0.912 | 0.807 | 0.839 | 0.802 | 0.137
NCI-H1915 | 0.263 | 0.268 | 0.233 | 0.129 | 0.0621 | 1.05 | 1.06 | 1.04 | 1.02 | 0.458 | 0.521 | 0.462 | 0.422 | 0.191 | 0.057 | 0.846 | 1.02 | 0.85 | 0.884 | 0.118
NCI-H1975 | 0.745 | 0.765 | 0.158 | 0.128 | 0.121 | 0.583 | 0.365 | 0.147 | 0.139 | 0.124 | 0.299 | 0.338 | 0.191 | 0.162 | 0.156 | 0.445 | 0.34 | 0.149 | 0.145 | 0.119
NCI-H1993 | 1.16 | 0.949 | 0.98 | 0.37 | 0.299 | 0.722 | 0.657 | 0.658 | 0.528 | 0.434 | 0.65 | 0.649 | 0.437 | 0.298 | 0.323 | 1.04 | 1.25 | 0.609 | 0.454 | 0.369
NCI-H2009 | 0.699 | 0.712 | 0.7 | 0.295 | 0.0798 | 1.13 | 1.19 | 1.13 | 0.853 | 0.366 | 1.01 | 1.03 | 1.04 | 0.86 | 0.166 | 0.974 | 0.995 | 0.917 | 0.815 | 0.142
NCI-H2023 | 0.472 | 0.163 | 0.0796 | 0.0702 | 0.0752 | 0.582 | 0.66 | 0.273 | 0.0878 | 0.0906 | 0.268 | 0.137 | 0.0942 | 0.0647 | 0.0873 | 0.886 | 0.878 | 0.138 | 0.0901 | 0.0776
NCI-H2085 | 0.869 | 0.76 | 0.78 | 0.748 | 0.674 | 0.825 | 1 | 0.934 | 0.852 | 0.671 | 0.944 | 0.923 | 0.911 | 0.877 | 0.828 | 1.08 | 1.02 | 1.11 | 1.04 | 0.714
